Assay results from patent US20230364091A1, “COMPOSITIONS AND METHODS FOR TREATING CANCER” (The Regents of the University of California, priority 2020, published 2023).

How the values were obtained:
[1] = Brain penetration in non-tumor bearing mice; type: in vivo; conditions: mouse, brain and plasma, unbound ratio of drug in brain to plasma
Excerpt: Disclosed in table 5 Brain to plasma percentages and unbound ratios of drugs in brain to plasma of indicated drugs in non-tumor bearing mice

[2] = test system: PC-9 cells (EGFR exon 19 deletion); assay: Cellular IC50, Cell Titer Glo viability, PC-9; type: cell-based; conditions: Homo sapiens, 72 hours
Method: (§1) PC-9 cells were purchased from Sigma, and HCC827 cells were purchased from ATCC. Each cell line was maintained at ≤passage 10 at 37° C. in a humidified incubator with 5% CO2. Cells were plated in 96-well optical bottom plates (Corning #3903; Corning, NY) at a cell density of 5,000 cells/well, allowed to adhere for minimally 16 hours, and subsequently treated with the test compounds using an 11-point serial dilution (1:3) in duplicate using an HP D300 digital 4 dispenser (Tecan, Morrisville, NC). 72 hours after addition of the test compounds, Cell Titer Glo reagent (Promega, Madison, WI) was added to the plate according to manufacturer's protocol and luminescence measured using a Spectramax M5 (Molecular Devices, San Jose, CA). IC50s were calculated using the 4-parameter variable slope curve fit using the equation below where, Y and X are variables plotted, Top and Bottom are plateaus in the units of the Y axis, Log IC50 is the Log transformation of the IC50 value and HillSlope is the Hill Slope for the curve and describes curve steepness (GraphPad Prism, version 6.07, GraphPad Software, Inc.). Y=Bottom+(Top−Bottom)/(1+10((Log IC50−X)*HillSlope)))

[3] = test system: HCC827 cells (EGFR exon 19 deletion); assay: Cellular IC50, Cell Titer Glo viability, HCC827; type: cell-based; conditions: Homo sapiens, 72 hours
Method: as §1

SMILES	Kp uu [1]	IC50 [2] [nM]	IC50 [3] [nM]
Fc1c(Br)cccc1Nc1ncnc2cc3c(cc12)OC(CN1CCOCC1)CO3 (racemic) [JGK063, (±)-N-(3-Bromo-2-fluorophenyl)-7-[(morpholin-4-yl)methyl]-7,8-dihydro[1,4]dioxino[2,3-g]quinazolin-4-amine]	0.341	–	–
CN(C)CC1COc2cc3ncnc(Nc4cccc(Br)c4F)c3cc2O1 (racemic) [JGK066, (±)-N-(3-Bromo-2-fluorophenyl)-7-[(dimethylamino)methyl]-7,8-dihydro[1,4]dioxino[2,3-g]quinazolin-4-amine]	1.18	–	–
CN1CCN(CC2COc3cc4ncnc(Nc5cccc(Br)c5F)c4cc3O2)CC1 (racemic) [JGK068, (±)-N-(3-Bromo-2-fluorophenyl)-7-[(4-methylpiperazin-1-yl)methyl]-7,8-dihydro[1,4]dioxino[2,3-g]quinazolin-4-amine]	1.18	–	–
Fc1c(Br)cccc1Nc1ncnc2cc3c(cc12)O[C@@H](CN1CCOCC1)CO3 [JCN063S, (S)—N-(3-bromo-2-fluorophenyl)-7-(morpholinomethyl)-7,8-dihydro-[1,4]dioxino[2,3-g]quinazolin-4-amine]	–	21.7	12.7
Fc1c(Br)cccc1Nc1ncnc2cc3c(cc12)O[C@@H](CN1CCCCC1)CO3 [JCN065S, (S)—N-(3-bromo-2-fluorophenyl)-7-(piperidin-1-ylmethyl)-7,8-dihydro-[1,4]dioxino[2,3-g]quinazolin-4-amine]	–	53.9	49.5
Fc1c(Br)cccc1Nc1ncnc2cc3c(cc12)O[C@@H](CN1CCCC1)CO3 [JCN067S, (S)—N-(3-bromo-2-fluorophenyl)-7-(pyrrolidin-1-ylmethyl)-7,8-dihydro-[1,4]dioxino[2,3-g]quinazolin-4-amine]	–	36.2	25.7
CN1CCN(C[C@H]2COc3cc4ncnc(Nc5cccc(Br)c5F)c4cc3O2)CC1 [JGK068S, (7S)—N-(3-Bromo-2-fluorophenyl)-7-[(4-methylpiperazin-1-yl)methyl]-7,8-dihydro[1,4]dioxino [2,3-g]quinazolin-4-amine]	1.18	–	–
Fc1c(Br)cccc1Nc1ncnc2cc3c(cc12)O[C@@H](CN1CCNCC1)CO3 [JGK083S, (7S)—N-(3-Bromo-2-fluorophenyl)-7-[(piperazin-1-yl)methyl]-7,8-dihydro[1,4]dioxino [2,3-g]quinazolin-4-amine]	0.798	–	–
